For 31 compounds, IC50 results are on record in US9758505B2, “3-(indol-3-yl)-pyridine derivatives, pharmaceutical compositions and methods for use” (ITEOS THERAPEUTICS, priority 2014, dated 2017).

Counter-ions that a name gives are not always drawn.

human TDO2, sequence (P48775 whole entry): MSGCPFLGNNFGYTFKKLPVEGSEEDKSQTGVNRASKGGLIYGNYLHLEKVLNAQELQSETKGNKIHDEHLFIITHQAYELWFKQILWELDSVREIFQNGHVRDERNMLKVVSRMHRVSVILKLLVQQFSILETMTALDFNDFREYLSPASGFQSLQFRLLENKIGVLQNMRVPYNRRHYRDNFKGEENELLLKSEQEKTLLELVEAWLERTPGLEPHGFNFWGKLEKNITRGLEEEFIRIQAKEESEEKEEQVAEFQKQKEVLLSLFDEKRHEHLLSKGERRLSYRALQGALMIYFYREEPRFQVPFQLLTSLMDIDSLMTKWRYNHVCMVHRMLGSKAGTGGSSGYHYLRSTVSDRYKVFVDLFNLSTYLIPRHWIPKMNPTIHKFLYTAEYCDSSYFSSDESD

The experiment concerns the target human TDO2 (Homo sapiens (Human), UniProt P48775). Nature of the experiment: Cellular assay for TDO2 activity, A172 cells naturally expressing hTDO2. The class given is cell-based. To be noted: human glioblastoma A172 cells, overnight incubation, kynurenine in supernatant. The protocol:
A172 is a cell line derived from human brain glioblastoma cells.
To determine TDO, the cells were incubated overnight at 37° C. at 5% CO2 in IMDM (Invitrogen) supplemented with 2% FBS and 2% penicillin/streptomycin in the presence of the compounds of the present invention, at different concentrations.
The plates were then centrifuged 5 min at 1000 rpm, and 100 μL of the supernatant were collected in a conical plate, 30 uL of TCA 30% were added and a further centrifugated at 3000×g for 10 minutes. 100 μL of the supernatant were collected in a flat bottomed plate and 100 μL of 2% (w/v) 4-(dimethylamino)-benzaldehyde in acetic acid and incubated for 5 min at room temperature. Kynurenine concentrations were determined by measuring the absorbance at 480 nm. A standard curve was made with pure kynurenine. The TDO activity was measured as described above using ten serial concentrations of the compounds of the present invention. Data were fitted using the Prism™ software (GraphPad Software, Inc.) using standard software configurations.
The IC50 is the concentration that gives 50% inhibition. For the compound `N[C@@H](Cc1ccccc1)C(=O)Nc1ccc(-c2c[nH]c3cc(F)ccc23)cn1` [Example 36, (S)-2-amino-N-(5-(6-fluoro-1H-indol-3-yl)pyridin-2-yl)-3-phenylpropanamide], half-maximal inhibition (IC50) required 1100 nM. The figure for `CC(C)[C@H](N)C(=O)Nc1ccc(-c2c[nH]c3cc(F)ccc23)cn1` [Example 38, (S)-2-amino-N-(5-(6-fluoro-1H-indol-3-yl)pyridin-2-yl)-3-methylbutanamide] is 740 nM; for `CC(=O)N1CCC(C(=O)Nc2ccc(-c3c[nH]c4cc(F)ccc34)cn2)CC1` [Example 42, 1-acetyl-N-(5-(6-fluoro-1H-indol-3-yl)pyridin-2-yl)piperidine-4-carboxamide] it is 520 nM; for `COCCS(=O)(=O)NC1CCN(c2ccc(-c3c[nH]c4cc(F)ccc34)cn2)CC1` [Example 57, N-(1-(5-(6-fluoro-1H-indol-3-yl)pyridin-2-yl)piperidin-4-yl)-2-methoxyethanesulfonamide] it is 1400 nM. The value for `O=C(Nc1ccc(-c2c[nH]c3cc(F)ccc23)cn1)[C@@H]1CCCN1` [Example 58, (S)—N-(5-(6-fluoro-1H-indol-3-yl)pyridin-2-yl)pyrrolidine-2-carboxamide] was 810 nM; that for `O=S(=O)(CCN1CCOCC1)NC1CCN(c2ccc(-c3c[nH]c4cc(F)ccc34)cn2)CC1` [Example 59, N-(1-(5-(6-fluoro-1H-indol-3-yl)pyridin-2-yl)piperidin-4-yl)-2-morpholinoethanesulfonamide] was 1400 nM. The compound `CS(=O)(=O)Nc1ccc(-c2c[nH]c3cc(F)ccc23)cn1` [Example 60, N-(5-(6-fluoro-1H-indol-3-yl)pyridin-2-yl)methanesulfonamide] came in with a half-maximal inhibitory concentration (IC50) of 700 nM.

Turning to `O=S(=O)(CCO)NC1CCN(c2ccc(-c3c[nH]c4cc(F)ccc34)cn2)CC1` [Example 62, N-(1-(5-(6-fluoro-1H-indol-3-yl)pyridin-2-yl)piperidin-4-yl)-2-hydroxyethanesulfonamide], inhibition was half-maximal at 1300 nM (IC50). `NC(=O)Nc1ccc(-c2c[nH]c3cc(F)ccc23)cn1` [Example 63, 1-(5-(6-fluoro-1H-indol-3-yl)pyridin-2-yl)urea]: the IC50 was found to be 360 nM. The value for `CS(=O)(=O)NCCC(=O)Nc1ccc(-c2c[nH]c3cc(F)ccc23)cn1` [Example 64, N-(5-(6-fluoro-1H-indol-3-yl)pyridin-2-yl)-3-(methylsulfonamido)propanamide] was 870 nM; that for `CN(C)C(=O)Nc1ccc(-c2c[nH]c3cc(F)ccc23)cn1` [Example 65, 3-(5-(6-fluoro-1H-indol-3-yl)pyridin-2-yl)-1,1-dimethylurea] was 820 nM.

The compound `CNC(=O)Nc1ccc(-c2c[nH]c3cc(F)ccc23)cn1` [Example 66, 1-(5-(6-fluoro-1H-indol-3-yl)pyridin-2-yl)-3-methylurea] had a concentration for half-maximal inhibition (IC50) of 440 nM.

`Nc1nc2ccc(-c3ccc(-c4c[nH]c5cc(F)ccc45)cn3)cc2[nH]1` [Example 67, 6-(5-(6-fluoro-1H-indol-3-yl)pyridin-2-yl)-1H-benzo[d]imidazol-2-amine] yielded an IC50 of 460 nM. The value for `Cn1cc(-c2c[nH]c3cc(F)ccc23)ccc1=O` [Example 68, 5-(6-fluoro-1H-indol-3-yl)-1-methylpyridin-2(1H)-one] was 480 nM; that for `CS(=O)(=O)NCCCC(=O)Nc1ccc(-c2c[nH]c3cc(F)ccc23)cn1` [Example 70, N-(5-(6-fluoro-1H-indol-3-yl)pyridin-2-yl)-4-(methylsulfonamido)butanamide] was 720 nM. Compound `O=c1[nH]c2ncc(-c3c[nH]c4cc(F)ccc34)cc2o1` [Example 71, 6-(6-fluoro-1H-indol-3-yl)oxazolo[4,5-b]pyridin-2(3H)-one] came in with an IC50 of 1400 nM.

As to `CS(=O)(=O)NC1CCN(c2ccc(-c3c[nH]c4cc(Cl)ccc34)cn2)CC1` [Example 72, N-(1-(5-(6-chloro-1H-indol-3-yl)pyridin-2-yl)piperidin-4-yl)methanesulfonamide], the midpoint of inhibition, the IC50, lay at 4700 nM. The compound `O=c1[nH]c2cc(-c3c[nH]c4cc(F)ccc34)cnc2[nH]1` [Example 73, 6-(6-fluoro-1H-indol-3-yl)-1H-imidazo[4,5-b]pyridin-2(3H)-one] had an IC50 of 600 nM. With `Cc1nc2ncc(-c3c[nH]c4cc(F)ccc34)cc2o1` [Example 74, 6-(6-fluoro-1H-indol-3-yl)-2-methyloxazolo[4,5-b]pyridine], the IC50 turned out to be 400 nM. Compound `Cc1nc2cc(-c3c[nH]c4cc(F)ccc34)cnc2o1` [Example 75, 6-(6-fluoro-1H-indol-3-yl)-2-methyloxazolo[5,4-b]pyridine] came in with an IC50 of 500 nM. As to `O=C1Cc2ncc(-c3c[nH]c4cc(F)ccc34)cc2N1` [Example 76, 6-(6-fluoro-1H-indol-3-yl)-1H-pyrrolo[3,2-b]pyridin-2(3H)-one], the IC50 stood at 4100 nM. In the case of `CS(=O)(=O)NC1CCN(c2ccc(-c3c[nH]c4ccc(Cl)cc34)cn2)CC1` [Example 77, N-(1-(5-(5-chloro-1H-indol-3-yl)pyridin-2-yl)piperidin-4-yl)methanesulfonamide], it took 2800 nM to reach half-maximal inhibition (IC50). As for `CS(=O)(=O)NC1CCN(c2ccc(-c3c[nH]c4ccccc34)cn2)CC1` [Example 79, N-(1-(5-(1H-indol-3-yl)pyridin-2-yl)piperidin-4-yl)methanesulfonamide], the concentration for half-maximal inhibition (IC50) was found to be 1200 nM.

Compound `NS(=O)(=O)c1ccc(-c2c[nH]c3cc(F)ccc23)cn1` [Example 80, 5-(6-fluoro-1H-indol-3-yl)pyridine-2-sulfonamide hydrochloride] gave an IC50 of 310 nM.

`CS(=O)(=O)NC1CCN(c2ccc(-c3c[nH]c4ccc(F)cc34)cn2)CC1` [Example 81, N-(1-(5-(5-fluoro-1H-indol-3-yl)pyridin-2-yl)piperidin-4-yl)methanesulfonamide] registered an IC50 of 2000 nM.

Compound `O=C1COCCN1c1ccc(-c2c[nH]c3cc(F)ccc23)cn1` [Example 82, 4-(5-(6-fluoro-1H-indol-3-yl)pyridin-2-yl)morpholin-3-one] displayed an IC50 of 590 nM. Consider `O=C1CNCCN1c1ccc(-c2c[nH]c3cc(F)ccc23)cn1` [Example 83, 1-(5-(6-fluoro-1H-indol-3-yl)pyridin-2-yl)piperazin-2-one], for which the IC50 amounted to 1500 nM. The figure for `O=C(O)Cn1c(=O)[nH]c2cc(-c3c[nH]c4cc(F)ccc34)cnc21` [Example 85, 2-(6-(6-fluoro-1H-indol-3-yl)-2-oxo-1H-imidazo[4,5-b]pyridin-3(2H)-yl)acetic acid] is 2300 nM; for `CCOC(=O)Cn1c(=O)[nH]c2cc(-c3c[nH]c4cc(F)ccc34)cnc21` [Example 86, ethyl 2-(6-(6-fluoro-1H-indol-3-yl)-2-oxo-1H-imidazo[4,5-b]pyridin-3(2H)-yl)acetate] it is 610 nM; for `O=S(=O)(c1ccc(-c2c[nH]c3cc(F)ccc23)cn1)N1CCNCC1` [Example 87, 6-fluoro-3-(6-(piperazin-1-ylsulfonyl)pyridin-3-yl)-1H-indole] it is 230 nM.

`CS(=O)(=O)NCCNS(=O)(=O)c1ccc(-c2c[nH]c3cc(F)ccc23)cn1` [Example 88, 5-(6-fluoro-1H-indol-3-yl)-N-(2-(methylsulfonamido)ethyl)pyridine-2-sulfonamide] gave a half-maximal inhibitory concentration (IC50) of 350 nM.
